Experiments:
[1] = tested on: CHO-K1 cells expressing a monoclonal antibody P2; assay: Fed-batch culture of P2 cells with valeric acid (viable cell density, viability, titer); format: cell-based, Chinese hamster
Protocol: Assays were performed with 2 CHO cell lines: • CHO-S cells expressing a fusion protein P1, herein “Cells P1” or “P1 cells”. “P1” is an IgG1 fusion protein, comprising one part directed against a membrane protein (IgG part) linked to a second part targeting a soluble immune protein. Its isoelectric point (pi) is about 6.3-7.0. • CHO-K1 cells expressing a monoclonal antibody P2, herein “Cells P2” or “P2 cells”. “P2” is a humanised monoclonal antibody directed against a receptor found on the cell membrane. Its isoelectric point (pi) is about 9.20-9.40. Cell expansion was performed in tubes in a medium suitable for cell expansion. Assays in fed-batch started after at least one week expansion. Cells expressing both P1 and P2 were inoculated at 0.2×10^6 viable cells per millilitre (mL). All assays were performed in fed-batch culture. The host cells were cultured in fed-batch system either in microplates (“Deep well plate”, “DWP”) or in Spin Tubes®, and incubated at 36.5° C., 90% relative humidity, 5% CO2 and 320 rpm shaking during 14 days. A stock solution of valeric acid was prepared in a standard production proprietary medium. The valeric acid concentration of this stock solution was 195 mM. The stock solution was used to supplement media to test different valeric acid concentrations from the beginning of the culture (day 0; tested concentrations: 1, 1.5 and 2 mM). The solution was also used like a feed to supplement the valeric acid to the culture at different time points during the fed-batch (day 3, 4, 5 or 7). When the solution was used like a feed, the target concentration in the culture was always 1.5 mM. Viable cell density and viability were measured with the Guava easyCyte® flow cytometer or with the ViCell. Antibody titres were measured with the fortéBIO Octet® or with Biacore C®. In this experiment the addition of 1.5 mM valeric acid to the culture on day 03, 04 or 05 was tested. For this experiment a CHO-k1 cell line (P2 cells) was used to confirm that valeric acid has the same effect than on CHO-S cells (P1 cells as discussed in a.).

[2] = tested on: CHO-S cells expressing a fusion protein P1; assay: Fed-batch culture of P1 cells with valeric acid (viable cell density, viability, titer); format: cell-based, Chinese hamster
Protocol: Assays were performed with 2 CHO cell lines: • CHO-S cells expressing a fusion protein P1, herein “Cells P1” or “P1 cells”. “P1” is an IgG1 fusion protein, comprising one part directed against a membrane protein (IgG part) linked to a second part targeting a soluble immune protein. Its isoelectric point (pi) is about 6.3-7.0. • CHO-K1 cells expressing a monoclonal antibody P2, herein “Cells P2” or “P2 cells”. “P2” is a humanised monoclonal antibody directed against a receptor found on the cell membrane. Its isoelectric point (pi) is about 9.20-9.40. Cell expansion was performed in tubes in a medium suitable for cell expansion. Assays in fed-batch started after at least one week expansion. Cells expressing both P1 and P2 were inoculated at 0.2×10^6 viable cells per millilitre (mL). All assays were performed in fed-batch culture. The host cells were cultured in fed-batch system either in microplates (“Deep well plate”, “DWP”) or in Spin Tubes®, and incubated at 36.5° C., 90% relative humidity, 5% CO2 and 320 rpm shaking during 14 days. A stock solution of valeric acid was prepared in a standard production proprietary medium. The valeric acid concentration of this stock solution was 195 mM. The stock solution was used to supplement media to test different valeric acid concentrations from the beginning of the culture (day 0; tested concentrations: 1, 1.5 and 2 mM). The solution was also used like a feed to supplement the valeric acid to the culture at different time points during the fed-batch (day 3, 4, 5 or 7). When the solution was used like a feed, the target concentration in the culture was always 1.5 mM. Viable cell density and viability were measured with the Guava easyCyte® flow cytometer or with the ViCell. Antibody titres were measured with the fortéBIO Octet® or with Biacore C®.

[3] = 1.5 mM valeric acid added day 03, 04 or 05, until day 12
[4] = valeric acid in media on day 0 (1, 1.5 and 2 mM)

CCCCC(=O)O [valeric acid]
viability compared to control culture ([1]; 1.5 mM valeric acid added day 03, 04 or 05, starting day 13): prolonged compared to the control culture | cell viability compared to control [1, 3]: no impact on cell viability | titer compared to control [1, 3]: comparable to control | maximum viable cell density compared to control ([1]; 1.5 mM valeric acid added earlier during the culture (day 03, 04 or 05)): decreased | titer increase compared to control ([1]; 1.5 mM valeric acid at day 3, titer at day 17): about 25% | titer increase compared to control ([1]; 1.5 mM valeric acid at day 5, titer at day 17): about 35% | titer increase compared to control ([1]; 1.5 mM valeric acid at day 7 (so in the source), titer at day 17): about 25% | titer obtained ([1]; optimal valeric acid condition, after day 17 (data not shown), control 0.9 g/L): ~5 g/L | viability of the culture compared to control ([2]; 1.5 mM valeric acid added as feed (day 3, 5 or 7), as of day 12): prolonged compared to the control runs | cell viability compared to control ([2]; 1.5 mM valeric acid added as feed (day 3, 5 or 7), until day 11): no impact on cell viability until day 11 | increase of titer compared to control ([2]; 1.5 mM valeric acid added as feed at day 3, titer at day 12): about 20% | increase of titer compared to control ([2]; 1.5 mM valeric acid added as feed at day 5, titer at day 12): about 30% | increase of titer compared to control ([2]; 1.5 mM valeric acid added as feed at day 7, titer at day 12): about 20% | cell growth rate compared to control ([2]; 1.5 mM valeric acid added at day 3): slowed down | final titer [2, 4]: not improved | maximum viable cell density [2, 4]: The higher the concentration, the lower the maximum viable cell density | viability [2, 4]: maintained longer than for control experiment | impact on cell density and titer ([2]; valeric acid in the media on day 0): very negative impact on both cell density and titer
